≈ marks a conversion by molar mass, not a printed value. Read-outs that look alike come from different tables or passages of the source.
Tests used:
[1] = tested on: AD/pABC3 (empty vector control, sensitive strain); test: microbe, parasite or virus in culture; details: Saccharomyces cerevisiae
[2] = tested on: AD/CDR1 (AD1-8u- overexpressing wt Cdr1); test: MIC, modified CLSI M27-A3 broth microdilution; details: Saccharomyces cerevisiae, read-out: MIC (drug susceptibility)
[3] = tested on: AD/CDR1-G521R; test: MIC, modified CLSI M27-A3 broth microdilution; details: for MIC: Saccharomyces cerevisiae, read-out: MIC (drug susceptibility); for Fold-reduced resistance level (MIC) relative to AD/CDR1: G521R, 1 = no change
[4] = tested on: AD/CDR1-M639I; test: MIC, modified CLSI M27-A3 broth microdilution; details: for Fold-reduced resistance level (MIC) relative to AD/CDR1: M639I, 1 = no change; for MIC: Saccharomyces cerevisiae, read-out: MIC (drug susceptibility)
[5] = tested on: AD/CDR1-A713P; test: MIC, modified CLSI M27-A3 broth microdilution; details: for Fold-reduced resistance level (MIC) relative to AD/CDR1: A713P, 1 = no change; for MIC: Saccharomyces cerevisiae, read-out: MIC (drug susceptibility)
[6] = tested on: AD/CDR1-T1355N; test: MIC, modified CLSI M27-A3 broth microdilution; details: for MIC: Saccharomyces cerevisiae, read-out: MIC (drug susceptibility); for Fold-reduced resistance level (MIC) relative to AD/CDR1: T1355N, 1 = no change
[7] = biological target: wt Cdr1 ATPase activity (Candida albicans, UniProt Q5ANA3); test: biochemical; details: for Ki: Dixon plot, read-out: Ki (Cdr1 ATPase activity); for Vmax of ATPase activity in the presence of inhibitor: CDR1; for type of inhibition of ATPase activity (Lineweaver-Burk): wt Cdr1
Chain of wt Cdr1 ATPase activity (Q5ANA3 whole entry): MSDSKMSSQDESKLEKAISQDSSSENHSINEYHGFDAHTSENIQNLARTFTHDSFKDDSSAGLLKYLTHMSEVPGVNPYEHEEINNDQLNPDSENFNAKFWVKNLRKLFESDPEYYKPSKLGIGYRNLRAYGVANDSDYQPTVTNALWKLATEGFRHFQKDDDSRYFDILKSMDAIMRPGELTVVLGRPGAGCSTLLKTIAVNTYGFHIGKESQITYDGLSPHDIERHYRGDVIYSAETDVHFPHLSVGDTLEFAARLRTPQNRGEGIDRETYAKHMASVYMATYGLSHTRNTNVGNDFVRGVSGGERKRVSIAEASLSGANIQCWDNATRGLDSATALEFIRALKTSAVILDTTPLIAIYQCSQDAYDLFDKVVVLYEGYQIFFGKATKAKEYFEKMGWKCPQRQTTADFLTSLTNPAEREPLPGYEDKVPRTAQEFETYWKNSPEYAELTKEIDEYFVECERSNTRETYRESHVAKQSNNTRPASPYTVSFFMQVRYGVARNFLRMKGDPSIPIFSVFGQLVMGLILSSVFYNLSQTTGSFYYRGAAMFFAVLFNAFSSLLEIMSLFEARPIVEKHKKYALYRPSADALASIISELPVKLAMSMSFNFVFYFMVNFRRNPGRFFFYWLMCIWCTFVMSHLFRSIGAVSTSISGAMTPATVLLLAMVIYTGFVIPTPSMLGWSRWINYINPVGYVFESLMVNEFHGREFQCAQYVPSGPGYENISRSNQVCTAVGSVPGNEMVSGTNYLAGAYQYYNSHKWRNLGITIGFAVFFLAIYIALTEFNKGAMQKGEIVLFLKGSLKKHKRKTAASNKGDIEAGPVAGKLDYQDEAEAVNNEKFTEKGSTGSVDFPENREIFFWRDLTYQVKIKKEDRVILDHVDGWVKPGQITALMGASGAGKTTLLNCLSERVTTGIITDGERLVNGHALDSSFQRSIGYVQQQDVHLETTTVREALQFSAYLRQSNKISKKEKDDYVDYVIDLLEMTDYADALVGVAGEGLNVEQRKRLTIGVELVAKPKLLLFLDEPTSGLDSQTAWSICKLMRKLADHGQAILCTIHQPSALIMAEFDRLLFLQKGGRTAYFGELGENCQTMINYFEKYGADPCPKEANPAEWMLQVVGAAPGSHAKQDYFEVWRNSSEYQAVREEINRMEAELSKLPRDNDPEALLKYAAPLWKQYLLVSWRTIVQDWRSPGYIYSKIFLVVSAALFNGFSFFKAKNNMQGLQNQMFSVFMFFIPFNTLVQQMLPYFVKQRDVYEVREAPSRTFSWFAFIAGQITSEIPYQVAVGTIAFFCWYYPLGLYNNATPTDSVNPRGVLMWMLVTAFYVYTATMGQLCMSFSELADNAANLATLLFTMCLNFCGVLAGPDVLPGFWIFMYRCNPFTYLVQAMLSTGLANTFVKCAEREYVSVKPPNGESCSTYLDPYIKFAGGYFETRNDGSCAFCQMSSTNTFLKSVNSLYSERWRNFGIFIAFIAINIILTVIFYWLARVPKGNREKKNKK

[8] = read-out: MIC (drug susceptibility)
[9] = read-out: MIC (drug susceptibility), strain AD/pABC3

Row | SMILES | MIC [1, 8] [µg/mL] | MIC [2] [µg/mL] | MIC [3] [µg/mL] | Fold-reduced resistance level (MIC) relative to AD/CDR1 [4] [fold] | MIC [4] [µg/mL] | Fold-reduced resistance level (MIC) relative to AD/CDR1 [5] [fold] | MIC [5] [µg/mL] | MIC [6] [µg/mL] | Fold-reduced resistance level (MIC) relative to AD/CDR1 [6] [fold] | Ki ([7]; CDR1 (wt)) [µM] | IC50 ([7]; CDR1 (wt), from Fig. 4, read-out: IC50 for inhibition of Cdr1 ATPase activity) [µM] | Vmax of ATPase activity in the presence of inhibitor ([7]; [I] 0.5 μM) [nmol/min/mg] | Vmax of ATPase activity in the presence of inhibitor ([7]; [I] 2.0 μM) [nmol/min/mg] | type of inhibition of ATPase activity (Lineweaver-Burk) [7] | MIC [1, 9] [µg/mL] | Vmax of ATPase activity in the presence of inhibitor ([7]; [I] 1.0 μM) [nmol/min/mg] | Fold-reduced resistance level (MIC) relative to AD/CDR1 [3] [fold]
1 | C/C1=C/C(=O)O[C@@H]2C[C@@H](CC[C@H](C)/C=C\C=C\CC1)O[C@@](O)([C@@H]1CSC(=O)N1)C2 [LaA, latrunculin A] | 0.016 (≈ 0.038 µM) | 8 (≈ 19 µM) | 0.125 (≈ 0.297 µM) | 1 | 8 (≈ 19 µM) | 4 | 2 (≈ 4.74 µM) | 2 (≈ 4.74 µM) | 4 | – | – | – | – | – | – | – | –
2 | [O]=[V]([O-])([O-])[O-] [Vanadate, vanadate] | – | – | – | – | – | – | – | – | – | 0.96 ± 0.08 | 1.2 | 161 | 90 | uncompetitive inhibitor | – | – | –
3 | CC[C@@H]([C@H](C)O)n1ncn(-c2ccc(N3CCN(c4ccc(OC[C@@H]5CO[C@@](Cn6cncn6)(c6ccc(F)cc6F)C5)cc4)CC3)cc2)c1=O [PSC, posaconazole] | – | 32 (≈ 45.7 µM) | 0.063 (≈ 0.0899 µM) | 16 | 2 (≈ 2.85 µM) | – | 1 (≈ 1.43 µM) | 2 (≈ 2.85 µM) | 16 | – | – | – | – | – | 0.016 (≈ 0.0228 µM) | – | –
4 | Clc1ccccc1C(c1ccccc1)(c1ccccc1)n1ccnc1 [CLT, clotrimazole] | 0.002 (≈ 0.0058 µM) | 8 (≈ 23.2 µM) | – | – | 8 (≈ 23.2 µM) | – | 1 (≈ 2.9 µM) | 4 (≈ 11.6 µM) | – | – | – | – | – | – | – | – | –
5 | CC[C@H]1/C=C/C=C/C[C@@H](C)[C@H](O)[C@@](C)(O)C(=O)[C@@H](C)[C@H](O)[C@@H](C)C(=O)[C@@H](C)[C@H](O)[C@@H](C)/C=C/C(=O)O[C@@H]2[C@H](C)[C@H](CC1)O[C@]1(CC[C@H](C)[C@H](C[C@@H](C)O)O1)[C@H]2C [Oligomycin, oligomycin] | – | – | – | – | – | – | – | – | – | 0.54 ± 0.01 | – | 185 | – | noncompetitive inhibition | – | 132 | –
6 | C/C=C/C/C=C/CCC(=O)[C@H]1O[C@H]1C(N)=O [CER, cerulenin] | – | 8 (≈ 35.8 µM) | 4 (≈ 17.9 µM) | 2 | 4 (≈ 17.9 µM) | 2 | 4 (≈ 17.9 µM) | 4 (≈ 17.9 µM) | 2 | – | – | – | – | – | 0.25 (≈ 1.12 µM) | – | 2
7 | C[C@@H](c1ncncc1F)[C@](O)(Cn1cncn1)c1ccc(F)cc1F [VRC, voriconazole] | – | 8 (≈ 22.9 µM) | 1 (≈ 2.86 µM) | 1 | 8 (≈ 22.9 µM) | 2 | 4 (≈ 11.5 µM) | 8 (≈ 22.9 µM) | 1 | – | – | – | – | – | 0.016 (≈ 0.0458 µM) | – | 8
8 | C[C@@H]1C[C@@H]([C@H](O)CC2CC(=O)NC(=O)C2)C(=O)[C@@H](C)C1 [CHX, cycloheximide] | 0.016 (≈ 0.0569 µM) | 2 (≈ 7.11 µM) | 1 (≈ 3.55 µM) | 2 | 1 (≈ 3.55 µM) | 2 | 1 (≈ 3.55 µM) | 2 (≈ 7.11 µM) | 1 | – | – | – | – | – | – | – | 2
9 | Clc1ccc(COC(Cn2ccnc2)c2ccc(Cl)cc2Cl)c(Cl)c1 (centres unmarked) [MCZ, miconazole] | 0.008 (≈ 0.0192 µM) | 8 (≈ 19.2 µM) | 0.5 (≈ 1.2 µM) | 4 | 2 (≈ 4.81 µM) | 8 | 1 (≈ 2.4 µM) | 2 (≈ 4.81 µM) | 4 | – | – | – | – | – | – | – | 16

Reference: article PMC8765293, “Inhibitor-Resistant Mutants Give Important Insights into Candida albicans ABC Transporter Cdr1 Substrate Specificity and Help Elucidate Efflux Pump Inhibition” (Antimicrobial Agents and Chemotherapy, 2022)
